# pIC50: −log10 of the molar value.
# Columns and labels:
# Type in all cases: cell-based
# T24 bladder cancer cells = assay: Cancer cell survival (CellTiter-Glo), T24; conditions: Homo sapiens
# Summary of the method: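 T24 cells seeded at 4×10^3 cells/well overnight, then exposed 72 h at 37 C, 5% CO2 to nine concentrations in triplicate. Survival measured by CellTiter-Glo luminescence relative to untreated and medium controls; IC50 derived.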
# [1] = tested on: Daudi lymphoma cancer cells; assay: Cancer cell survival (CellTiter-Glo), Daudi; conditions: Homo sapiens, 72 h
# Summary of the method: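 Daudi cells (4×10^3/well) were exposed for 72 h at 37 °C to nine concentrations of compound, added as 10× solutions spanning 1 μM–10 mM (fatty acids) or 100 nM–1 mM (others). CellTiter-Glo luminescence gave % survival versus untreated, medium-blank corrected; IC50 derived.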
# MCF7 breast cancer cells = assay: Cancer cell survival (CellTiter-Glo), MCF7; conditions: Homo sapiens, 72 h
# Summary of the method: (§1)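 Cells seeded at 4×10^3 cells/well, incubated overnight, then treated in triplicate at nine concentrations for 72 h at 37 C, 5% CO2. Viability by CellTiter-Glo luminescence, survival % normalized to untreated and medium controls; IC50 derived.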
# [2] = tested on: HCT 116 colorectal cancer cells; assay: Cancer cell survival (CellTiter-Glo), HCT 116; conditions: Homo sapiens, HCT 116 cells, 72 h
# Summary of the method: as §1
# A549 lung cancer cells = assay: Cancer cell survival (CellTiter-Glo), A549; conditions: Homo sapiens, 72 h
# Summary of the method: as §1
# [3] = tested on: PC-3 prostate cancer cells; assay: Cancer cell survival (CellTiter-Glo), PC-3; conditions: Homo sapiens, PC-3 cells, 72 h
# Summary of the method: as §1
# A-431 skin cancer cells = assay: Cancer cell survival (CellTiter-Glo), A-431; conditions: Homo sapiens, A-431 cells, 72 h
# Summary of the method: as §1
# AGS stomach cancer cells = assay: Cancer cell survival (CellTiter-Glo), AGS
# Summary of the method: as §1
# [4] = 101 nM, read-out: Cell survival at given concentration
# [5] = 318 nM, read-out: Cell survival at given concentration
# [6] = 1 μM, read-out: Cell survival at given concentration
# [7] = 3 μM, read-out: Cell survival at given concentration
# [8] = 10 μM, read-out: Cell survival at given concentration
# [9] = 32 μM, read-out: Cell survival at given concentration
# [10] = 100 μM, read-out: Cell survival at given concentration
# [11] = 316 μM, read-out: Cell survival at given concentration
# [12] = 1000 μM, read-out: Cell survival at given concentration
smiles,measurement,setting,value
O=c1cc(-c2ccc(O)c(O)c2)oc2cc(O)cc(O)c12 [luteolin],viability at 0.101 µM,"T24 bladder cancer cells; T-24, 101 nM, 72 h, read-out: Cell survival at given concentration",99%
same,viability at 0.318 µM,"T24 bladder cancer cells; T-24, 318 nM, 72 h, read-out: Cell survival at given concentration",102%
same,viability at 1 µM,"T24 bladder cancer cells; T-24, 1 μM, 72 h, read-out: Cell survival at given concentration",103%
same,viability at 3 µM,"T24 bladder cancer cells; T-24, 3 μM, 72 h, read-out: Cell survival at given concentration",94%
same,viability at 10 µM,"T24 bladder cancer cells; T-24, 10 μM, 72 h, read-out: Cell survival at given concentration",85%
same,viability at 32 µM,"T24 bladder cancer cells; T-24, 32 μM, 72 h, read-out: Cell survival at given concentration",35%
same,viability at 100 µM,"T24 bladder cancer cells; T-24, 100 μM, 72 h, read-out: Cell survival at given concentration",9%
same,viability at 316 µM,"T24 bladder cancer cells; T-24, 316 μM, 72 h, read-out: Cell survival at given concentration",8%
same,viability at 1000 µM,"T24 bladder cancer cells; T-24, 1000 μM, 72 h, read-out: Cell survival at given concentration",6%
same,pIC50,"T24 bladder cancer cells; T-24, 72 h, Table 3.1, read-out: 1050",4.64
same,viability at 0.101 µM,[1]; [4],100%
same,viability at 0.318 µM,[1]; [5],102%
same,viability at 1 µM,[1]; [6],103%
same,viability at 3 µM,[1]; [7],106%
same,viability at 10 µM,[1]; [8],85%
same,viability at 32 µM,[1]; [9],33%
same,viability at 100 µM,[1]; [10],10%
same,viability at 316 µM,[1]; [11],6%
same,viability at 1000 µM,[1]; [12],16%
same,pIC50,[1]; Table 4.1,4.67
same,viability at 0.101 µM,MCF7 breast cancer cells; [4],96%
same,viability at 0.318 µM,MCF7 breast cancer cells; [5],99%
same,viability at 1 µM,MCF7 breast cancer cells; [6],103%
same,viability at 3 µM,MCF7 breast cancer cells; [7],104%
same,viability at 10 µM,MCF7 breast cancer cells; [8],108%
same,viability at 32 µM,MCF7 breast cancer cells; [9],60%
same,viability at 100 µM,MCF7 breast cancer cells; [10],31%
same,viability at 316 µM,MCF7 breast cancer cells; [11],26%
same,viability at 1000 µM,MCF7 breast cancer cells; [12],24%
same,pIC50,MCF7 breast cancer cells; Table 5.1,4.44
same,viability at 0.101 µM,[2]; [4],100%
same,viability at 0.318 µM,[2]; [5],98%
same,viability at 1 µM,[2]; [6],101%
same,viability at 3 µM,[2]; [7],97%
same,viability at 10 µM,[2]; [8],93%
same,viability at 32 µM,[2]; [9],29%
same,viability at 100 µM,[2]; [10],2%
same,viability at 316 µM,[2]; [11],6%
same,viability at 1000 µM,[2]; [12],1%
same,pIC50,[2]; Table 6.1,4.62
same,viability at 0.101 µM,A549 lung cancer cells; [4],96%
same,viability at 0.318 µM,A549 lung cancer cells; [5],98%
same,viability at 1 µM,A549 lung cancer cells; [6],100%
same,viability at 3 µM,A549 lung cancer cells; [7],100%
same,viability at 10 µM,A549 lung cancer cells; [8],101%
same,viability at 32 µM,A549 lung cancer cells; [9],84%
same,viability at 100 µM,A549 lung cancer cells; [10],37%
same,viability at 316 µM,A549 lung cancer cells; [11],13%
same,viability at 1000 µM,A549 lung cancer cells; [12],10%
same,pIC50,A549 lung cancer cells; Table 7.1,4.13
same,viability at 0.101 µM,[3]; [4],100%
same,viability at 0.318 µM,[3]; [5],99%
same,viability at 1 µM,[3]; [6],100%
same,viability at 3 µM,[3]; [7],102%
same,viability at 10 µM,[3]; [8],96%
same,viability at 32 µM,[3]; [9],74%
same,viability at 100 µM,[3]; [10],52%
same,viability at 316 µM,[3]; [11],23%
same,viability at 1000 µM,[3]; [12],23%
same,pIC50,[3]; Table 8.1,4.03
same,viability at 0.101 µM,A-431 skin cancer cells; [4],101%
same,viability at 0.318 µM,A-431 skin cancer cells; [5],99%
same,viability at 1 µM,A-431 skin cancer cells; [6],102%
same,viability at 3 µM,A-431 skin cancer cells; [7],101%
same,viability at 10 µM,A-431 skin cancer cells; [8],99%
same,viability at 32 µM,A-431 skin cancer cells; [9],61%
same,viability at 100 µM,A-431 skin cancer cells; [10],39%
same,viability at 316 µM,A-431 skin cancer cells; [11],20%
same,viability at 1000 µM,A-431 skin cancer cells; [12],4%
same,pIC50,A-431 skin cancer cells; Table 9.1,4.14
same,viability at 0.101 µM,"AGS stomach cancer cells; 72 h, 101 nM, read-out: Cell survival at given concentration",99%
same,viability at 0.318 µM,"AGS stomach cancer cells; 72 h, 318 nM, read-out: Cell survival at given concentration",100%
same,viability at 1 µM,"AGS stomach cancer cells; 72 h, 1 μM, Table 10.1, read-out: Cell survival at given concentration",103%
same,viability at 3 µM,"AGS stomach cancer cells; 72 h, 3 μM, Table 10.1, read-out: Cell survival at given concentration",106%
same,viability at 10 µM,"AGS stomach cancer cells; 72 h, 10 μM, Table 10.1, read-out: Cell survival at given concentration",106%
same,viability at 32 µM,"AGS stomach cancer cells; 72 h, 32 μM, Table 10.1, read-out: Cell survival at given concentration",77%
same,viability at 100 µM,"AGS stomach cancer cells; 72 h, 100 μM, Table 10.1, read-out: Cell survival at given concentration",29%
same,viability at 316 µM,"AGS stomach cancer cells; 72 h, 316 μM, read-out: Cell survival at given concentration",8%
same,viability at 1000 µM,"AGS stomach cancer cells; 72 h, 1000 μM, read-out: Cell survival at given concentration",3%
same,pIC50,AGS stomach cancer cells; Table 10.1,4.17

# Reference: US20210085640A1, “ACYLATED CATECHIN POLYPHENOLS AND METHODS OF THEIR USE FOR THE TREATMENT OF CANCER” (Flagship Pioneering Innovations V, Inc., priority 2018, published 2021)
